Measured values from patent publication US10988433B2, “Cyclohexyl GPR40 agonists for the treatment of type II diabetes” (Janssen Pharmaceutica NV, priority 2016, dated 2021).

How the values were obtained:
rat GPR40 = molecular target: T1, rat GPR40 (Rattus norvegicus, UniProt Q8K3T4); experiment: GPR40 calcium flux assay, HEK293 cells stably expressing rat GPR40; format: cell-based; details: transfected HEK293 cells stably expressing rat GPR40, Fluo 8 dye, read-out: rGPR40 Ca2+ Assay EC50
T1 construct: expressed in transfected cells

Male ZDF rats = experiment: Oral Glucose Tolerance Test, Version B; format: in vivo, rat; details: Assay Version B: fasted male ZDF rats, compound 10 mg/kg 120 min prior to OGTT (glucose 1 g/kg po); blood glucose AUC t=0 to 120 min vs vehicle
Procedure: Male ZDF rats (7 weeks old, 200-240 g) were housed 2 per cage in a temperature-controlled room with a 12-hour light/dark cycle. They were allowed ad libitum access to water and fed with 5008 rodent chow. The night before the oral glucose tolerance test (OGTT), the rats were transferred to clean cages and fasted overnight. On the morning of the OGTT, the rats were weighed and randomized into groups based on fasted blood glucose and body weight. Rats were dosed with vehicle (0.5% Methocel) or compound (10 mg/kg) 120 min prior to the OGTT (glucose, 1 g/kg, po). Blood was collected from the tail vein at 0, 10, 30, 60 and 120 minutes after glucose challenge to measure blood glucose; plasma was used to determine insulin levels. The area under the curve for blood glucose excursion was calculated from t=0 to t=120 minutes. Percent lowering of glucose was calculated from the AUC data with respect to the vehicle-treated group.

human GPR40 = molecular target: T2, human GPR40 (Homo sapiens, UniProt O14842); experiment: GPR40 calcium flux assay, HEK293 cells stably expressing human GPR40; format: cell-based; details: transfected HEK293 cells stably expressing human GPR40, Fluo 8 dye, read-out: hGPR40 Ca2+ Assay EC50
T2 construct: expressed in transfected cells
T2 sequence (O14842 whole entry): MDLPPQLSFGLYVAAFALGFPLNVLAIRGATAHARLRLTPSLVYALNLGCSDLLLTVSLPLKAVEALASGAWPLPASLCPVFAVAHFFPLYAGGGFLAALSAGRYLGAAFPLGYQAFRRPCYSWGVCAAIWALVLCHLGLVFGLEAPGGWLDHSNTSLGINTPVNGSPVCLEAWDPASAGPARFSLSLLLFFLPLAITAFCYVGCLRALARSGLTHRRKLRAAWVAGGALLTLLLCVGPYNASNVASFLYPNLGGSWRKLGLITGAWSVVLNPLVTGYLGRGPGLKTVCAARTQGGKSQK

T1 sequence (Q8K3T4 whole entry): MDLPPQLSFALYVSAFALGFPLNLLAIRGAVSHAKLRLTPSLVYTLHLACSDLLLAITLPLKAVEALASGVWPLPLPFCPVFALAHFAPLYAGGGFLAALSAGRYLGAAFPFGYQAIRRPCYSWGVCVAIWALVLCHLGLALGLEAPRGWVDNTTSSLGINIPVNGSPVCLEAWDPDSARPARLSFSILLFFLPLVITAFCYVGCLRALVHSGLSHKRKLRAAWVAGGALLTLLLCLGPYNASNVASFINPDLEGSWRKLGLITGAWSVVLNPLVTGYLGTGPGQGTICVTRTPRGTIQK

## COc1ccc(F)c([C@H]2CC[C@H](COc3cccc([C@H](C4CC4)[C@@](C)(F)C(=O)O)c3)CC2)c1 [Cpd 59, (2R,3S)-3-Cyclopropyl-2-fluoro-3-(3-(((1r,4S)-4-(2-fluoro-5-methoxyphenyl)cyclohexyl)methoxy)phenyl)-2-methylpropanoic acid]
Rat GPR40
  EC50: 0.72 nM
Male ZDF rats
  Percent Lowering of Glucose (AUC compound vs. AUC Vehicle): 48%
Human GPR40
  EC50: 0.27 nM
